Measured values published in patent US10278971B2, “Fluorocyclopentenylcytosine methods of use” (Rexahn Pharmaceuticals, Inc., priority 2015, dated 2019).
pIC50: −log10 of the molar value.

Columns and labels:
[1] = Open-label dose-ranging study: pharmacokinetics, safety and tolerability of oral doses; type: in vivo, human; conditions: for AUC(0-t): AUC0-24
Procedure: In an open-label, dose-ranging study, the pharmacokinetics (PK) of RX-3117 at various oral doses was evaluated. Subjects with advanced malignant tumors were administered capsules containing RX-3117 at daily doses of 30 mg (N=1), 60 mg (N=1), 100 mg (N=3), 150 mg (N=3), 200 mg (N=3), 500 mg (N=3), 1000 mg (N=3), 1500 mg (N=4), and 2000 mg (N=5 to date) 3 times a week (TIWK) for 3 weeks with 1 week off during each 4 week cycle. Based on the continued safety profile, and to enhance weekly RX-3117 exposure, more frequent dosing was also implemented. In addition to the TIWK dosing scheme discussed above, subjects also received 500 mg and 700 mg 5 times a week, and 500 mg for 7 times a week for 3 weeks with 1 week off during each 4 week cycle. Dose escalation began with an accelerated design treating 1 subject per dose (Simon et al., J Natl. Cancer Inst., 89(15):1138-47 (1997) followed by a standard 3+3 design using a modified Fibonacci sequence after the occurrence of a single related Grade 2 or greater adverse event. Table 3 summarizes the dosing schedule.
(§1) The efficacy, safety and tolerability of RX-3117 at various doses and frequencies were evaluated (see Example 4, above). Subjects with advanced malignant tumors were administered capsules containing RX-3117 at various doses, from TIWK to 7 times per week for 3 weeks with 1 week off during each 4-week cycle. Dose escalation begins with an accelerated design treating 1 subject per dose (Simon et al., J. Natl. Cancer Inst., 89(15):1138-47 (1997) followed by a standard 3+3 design using a modified Fibonacci sequence after the occurrence of a single related Grade 2 or greater adverse event. Table 4 (above) summarizes the dosing schedule.

[2] = test system: A549; conditions: as reported in Peters et al. 2013; cited from earlier work
[3] = test system: SW1573 spheroids; test: Spheroid assay, radiosensitizing effect; type: cell-based, human; conditions: SW1573 spheres
Procedure: (§2) The NSCLC cell lines A549 and SW1573 were plated in low attachment 24 well plates (Corning Incorporated, Corning, N.Y.) at a density of 100,000 cells/well and allowed to form spheroids. After three days, single spheroids were transferred to new 24 well low attachment plates (one spheroid/well). Immediately after transfer treatment was started, for A549 and SW1573 cells 1 μM RX-3117 was combined with fractionated 2 Gy irradiation (5 days single 2 Gy dose). Pictures were taken on day 0 (before irradiation) and after 3, 6, 9, and 15 days using a phase contrast microscope (LeicaDMI300B Universal Grab 6.3 software, Digital Cell Imaging Labs). The measurements were taken by ImageJ software (ImageJ 1.45s, Wayne Rasband, National Institutes of Health, Bethesda, Md.) for spheroid volume calculation (V=4/3π(D/2)^3) as described earlier by Galvani et al. (Galvani E, Giovannetti E, Saccani F, Cavazzoni A, Leon L G, Dekker H, Alfieri R, Carmi C, Mor M, Ardizzoni A, Petronini P G and Peters G J: Molecular mechanisms underlying the antitumor activity of 3-aminopropanamide irreversible inhibitors of the epidermal growth factor receptor in non-small cell lung cancer. Neoplasia 15: 61-72, 2013).

[4] = test system: A549 spheroids; test: Spheroid assay, radiosensitizing effect; type: cell-based, human
Procedure: as §2

[5] = test system: advanced malignant tumors; test: Efficacy in subjects with advanced malignant tumors; type: in vivo, human; conditions: 48 subjects enrolled
Procedure: as §1

## Nc1ccn([C@@H]2C(F)=C(CO)[C@@H](O)[C@H]2O)c(=O)n1 [RX-3117, 4-amino-1-((1S,4R,5S)-2-fluoro-4,5-dihydroxy-3-hydroxymethyl-cyclopent-2-enyl)-1H-pyrimidin-2-one]
[1]; 5 days per week, three weeks with 1 week off per 4-week cycle
  maximum tolerated dose (MTD): 700 mg daily
[1]; Phase I clinical study, as stated in Example 7
  maximal tolerated dose: higher than 2,000 mg/day
[1]; human, in vivo
  apparent terminal T1/2, mean values: 12.3 to 20.2 h
  dose limiting toxicities: Grade 3 anemia, thrombocytopenia
  share of AUC0-t (0-24 hours) observed in the first 8 hours: about half
  share of AUC observed by 24 hours: over 80%
[1]; human, in vivo, apparent terminal T1/2, mean values
  half-life: 11.6 to 16.7 h
[1]; human, in vivo, po, 30 mg, Tmax
  Tmax: 2 h
[1]; human, in vivo, po, 60 mg
  AUC0-24: 1164 ng·h/mL
  Cmax: 139 ng/mL
  T1/2: 16.2 h
  AUC(0-t): 1570 ng·h/mL
[1]; human, in vivo, po, 60 mg, Cmax
  Cmax: 113 ng/mL
[1]; human, in vivo, po, 60 mg, T1/2
  half-life: 15.7 h
[1]; human, in vivo, po, 60 mg, Tmax
  Tmax: 4 h
[1]; human, in vivo, po, 100 mg
  AUC0-24: 2714 ng·h/mL
  Cmax: 357 ng/mL
  T1/2: 15.4 h
  AUC(0-t): 3290 ng·h/mL
[1]; human, in vivo, po, 100 mg, Cmax
  Cmax: 460 ng/mL
[1]; human, in vivo, po, 100 mg, T1/2
  half-life: 20.2 h
[1]; human, in vivo, po, 100 mg, Tmax
  Tmax: 2 h
[1]; human, in vivo, po, 150 mg
  AUC0-24: 2437 ng·h/mL
  Cmax: 360 ng/mL
  T1/2: 15.1 h
  AUC(0-t): 3550 ng·h/mL
[1]; human, in vivo, po, 150 mg, Cmax
  Cmax: 511 ng/mL
[1]; human, in vivo, po, 150 mg, T1/2
  half-life: 13.9 h
[1]; human, in vivo, po, 150 mg, Tmax
  Tmax: 3 h
[1]; human, in vivo, po, 200 mg
  AUC0-24: 4574 ng·h/mL
  Cmax: 643 ng/mL
  T1/2: 16.2 h
  AUC(0-t): 4720 ng·h/mL
[1]; human, in vivo, po, 200 mg, Cmax
  Cmax: 637 ng/mL
[1]; human, in vivo, po, 200 mg, T1/2
  half-life: 13.3 h
[1]; human, in vivo, po, 200 mg, Tmax
  Tmax: 2 h
[1]; human, in vivo, po, 500 mg
  Tmax: 2.5 h
  AUC(0-t): 7920 ng·h/mL
[1]; human, in vivo, po, 500 mg, Cmax
  Cmax: 1100 ng/mL
[1]; human, in vivo, po, 500 mg, Tmax
  Tmax: 2 h
[1]; human, in vivo, po, 700 mg
  AUC0-24: 6321 ng·h/mL
  Cmax: 674 ng/mL
  T1/2: 11.2 h
  AUC(0-t): 8660 ng·h/mL
[1]; human, in vivo, po, 700 mg, Cmax
  Cmax: 989 ng/mL
[1]; human, in vivo, po, 700 mg, T1/2
  half-life: 9.05 h
[1]; human, in vivo, po, 700 mg, Tmax
  Tmax: 3 h
[1]; human, in vivo, po, 1000 mg
  AUC0-24: 9753 ng·h/mL
  Cmax: 1210 ng/mL
  T1/2: 14.9 h
  AUC(0-t): 12200 ng·h/mL
[1]; human, in vivo, po, 1000 mg, Cmax
  Cmax: 1640 ng/mL
[1]; human, in vivo, po, 1000 mg, T1/2
  half-life: 11.6 h
[1]; human, in vivo, po, 1000 mg, Tmax
  Tmax: 2 h
[1]; human, in vivo, po, 1500 mg
  Cmax: 883 ng/mL
  T1/2: 13.8 h
[1]; human, in vivo, po, 1500 mg, Cmax
  Cmax: 1620 ng/mL
[1]; human, in vivo, po, 1500 mg, T1/2
  half-life: 11.8 h
[1]; human, in vivo, po, 1500 mg, Tmax
  Tmax: 3 h
[1]; human, in vivo, po, 2000 mg
  AUC0-24: 17403 ng·h/mL
  Cmax: 1703 ng/mL
  T1/2: 12.1 h
  AUC(0-t): 17000 ng·h/mL
[1]; human, in vivo, po, 2000 mg, Cmax
  Cmax: 1860 ng/mL
[1]; human, in vivo, po, 2000 mg, T1/2
  half-life: 13.3 h
[1]; human, in vivo, po, 2000 mg, Tmax
  Tmax: 3 h
[1]; human, in vivo, po, median Tmax
  Tmax: 2 to 3 h
[1]; in vivo
  accumulation: generally minimal
  most frequent related adverse events: moderate to severe anemia, mild to moderate fatigue and nausea, mild diarrhea, vomiting, and anorexia
  most frequently observed adverse events: mild to moderate fatigue and nausea, mild diarrhea, mild vomiting, mild anorexia and moderate dehydration
[2]
  pIC50: 5.08
[3]; 1 μM plus 2 Gy 5 days
  spheroid volume, combination with radiotherapy: the effect was enhanced with the combination
[3]; 1 μM, 15 days
  spheroid volume, RX-3117 alone: highly affected
[4]; A549, 1 μM plus 5 days irradiation with 2 Gy
  spheroid volume growth, combination with irradiation: enhanced the effect
[4]; A549, 1 μM, 15 days
  spheroid volume growth, RX-3117 alone: only a small effect
[5]; various oral doses and frequencies
  subjects with stable disease for 1 to 10 cycles: Seventeen
[5]; pancreatic, breast and mesothelioma cancers
  subjects with tumor burden reduction: 3 subjects
